Assay results taken from patent US4921953A, “Cephalosporin derivatives” (Taisho Pharmaceutical Co., Ltd., priority 1988, dated 1990).
In brackets after ≈: the same amount, converted by molar mass. Where a name gives a salt, the structure may show the parent alone. Read-outs that look alike come from different tables or passages of the source. Values belong to the molecule of their own block, whether it stands above or below them.

Key:
[1] = in vivo; design: species or system male Japanese native strain white rabbits; conditions: blood, rabbit, oral, 20 mg/kg suspended in 5% gum arabic, bioassay (Bacillus luteus S1101)
Procedure: Three male Japanese native strain white rabbits weighing 2.50 to 3.15 kg for each group were administered orally with the test compounds, and the change of the concentration of the compound in blood was measured.
Dosage of the test compound: 20 mg/kg (suspended in 5% gum arabic).
Quantitative method: Bioassy method (test bacterium: Bacillus luteus S1101).

[2] = test system: Entercococcus faecalis ATCC 8043; experiment: antibacterial activity, agar plate dilution method (MIC); type: cell-based; conditions: read-out: Minimum Inhibitory Concentration (MIC)
Procedure: (§1) The antibacterial activity against various bacteria was measured by the agar plate dilution method (inoculum size: 10^6 cells/ml), and the results are shown in the following Table 1.

[3] = test system: Eschelichia coli A13; experiment: as above; type: cell-based; conditions: read-out: Minimum Inhibitory Concentration (MIC)
Procedure: as §1

[4] = test system: Staphylococcus aureus 209P-JC; experiment: as above; type: cell-based; conditions: read-out: Minimum Inhibitory Concentration (MIC)
Procedure: as §1

[5] = test system: Staphylococcus aureus K-1; experiment: as above; type: cell-based
Procedure: as §1

[6] = test system: Eschelichia coli NIHJ JC-2; experiment: as above; type: cell-based; conditions: read-out: Minimum Inhibitory Concentration (MIC)
Procedure: as §1

[7] = test system: Staphylococcus epidermidis sp-al-1; experiment: as above; type: cell-based
Procedure: as §1

[8] = Staphylococcus aureus, K1, read-out: Minimum Inhibitory Concentration (MIC)
[9] = Staphylococcus epidermidis, SPAL1, read-out: Minimum Inhibitory Concentration (MIC)
[10] = Entercococcus faecalis ATCC 8043, inoculum size: 10^6 cells/ml
[11] = Eschelichia coli A13, inoculum size: 10^6 cells/ml
[12] = Staphylococcus aureus 209P-JC, inoculum size: 10^6 cells/ml
[13] = K1, Staphylococcus aureus K-1, inoculum size: 10^6 cells/ml, read-out: Minimum Inhibitory Concentration (MIC)
[14] = Eschelichia coli NIHJ JC-2, inoculum size: 10^6 cells/ml
[15] = SPAL1, Staphylococcus epidermidis sp-al-1, inoculum size: 10^6 cells/ml, read-out: Minimum Inhibitory Concentration (MIC)

SMILES: N#CCSC1=C(C(=O)[O-])N2C(=O)[C@@H](NC(=O)/C(=N\O)c3csc(N)n3)[C@H]2SC1.[Na+]
concentration at 4 h ([1]; Four Hours after administration): 2500 ng/mL
concentration at 1 h ([1]; One Hour after administration): 2500 ng/mL
concentration at 2 h ([1]; Two Hours after administration): 4000 ng/mL
MIC [2]: 1.56 µg/mL
MIC [3]: 1.56 µg/mL
MIC ([4]; Staphylococcus aureus, 209P): 0.2 µg/mL
MIC [5, 8]: 0.78 µg/mL
MIC [6]: 0.2 µg/mL
MIC [7, 9]: 0.78 µg/mL

MIC [2, 10]: 25 µg/mL (≈ 55.9 µM)
MIC [3, 11]: 6.25 µg/mL (≈ 14 µM)
MIC [4, 12]: 0.39 µg/mL (≈ 0.872 µM)
MIC [5, 13]: 0.78 µg/mL (≈ 1.74 µM)
MIC [6, 14]: 0.39 µg/mL (≈ 0.872 µM)
MIC [7, 15]: 0.78 µg/mL (≈ 1.74 µM)
SMILES: Nc1nc(/C(=N/O)C(=O)N[C@@H]2C(=O)N3C(C(=O)O)=C(SCCF)CS[C@H]23)cs1 [B]

SMILES: C=CCSC1=C(C(=O)O)N2C(=O)[C@@H](NC(=O)/C(=N\O)c3csc(N)n3)[C@H]2SC1 [C]
MIC [2]: 12.5 µg/mL (≈ 28.3 µM)
MIC [3]: 6.25 µg/mL (≈ 14.2 µM)
MIC [4, 12]: 0.2 µg/mL (≈ 0.453 µM)
MIC [5, 8]: 6.25 µg/mL (≈ 14.2 µM)
MIC [6, 14]: 0.2 µg/mL (≈ 0.453 µM)
MIC [7, 15]: 0.39 µg/mL (≈ 0.883 µM)

SMILES: CC1=C(C(=O)O)N2C(=O)[C@@H](NC(=O)[C@H](N)c3ccccc3)[C@H]2SC1 [D, Cephalexin, reference compound]
MIC [2]: 100 µg/mL (≈ 288 µM)
MIC [3]: > 100 µg/mL
MIC ([4]; Staphylococcus aureus, 209P): 0.78 µg/mL (≈ 2.25 µM)
MIC [5, 8]: > 100 µg/mL
MIC [6]: 6.25 µg/mL (≈ 18 µM)
MIC [7, 9]: 1.56 µg/mL (≈ 4.49 µM)

SMILES: C=CC1=C(C(=O)O)N2C(=O)[C@@H](NC(=O)/C(=N\OCC(=O)O)c3csc(N)n3)[C@H]2SC1 [E, Cefixime sodium salt, reference compound]
MIC [2, 10]: > 100 µg/mL
MIC [3, 11]: > 100 µg/mL
MIC ([4]; Staphylococcus aureus, 209P): 12.5 µg/mL
MIC [5, 13]: > 100 µg/mL
MIC [6]: 0.39 µg/mL
MIC [7, 15]: 50 µg/mL
